Where “and” joins values, the source holds several entries; their conditions need not be identical. Equal values may be shown once.
Columns and labels:
Assay type in all cases: cell-based
HIV-1 NDK = experiment: HIV-1 infection of C8166 cells (syncytia formation, p24 ELISA) with HIV-1 NDK; design: key to syncitia formed, Day 4 / syncitia formed, Day 5 / syncitia formed, Day 6 / syncitia formed, Day 7: ++, +, (+), (+)− and − represent decreasing numbers of syncitia formed; ++, +, (+), (+)− and − represent decreasing numbers of syncitia formed; ++, +, (+), (+)− and − represent decreasing numbers of syncitia formed; ++, +, (+), (+)− and − represent decreasing numbers of syncitia formed; ++, +, (+), (+)− and − represent decreasing numbers of syncitia formed; settings: for P 24: P 24 after Day 7
Summary of the method: (§1)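 C8166 T-cells were preincubated with peptide for 1 h at 37 °C, then exposed for 1 h to HIV-1 at 1000 TCID50/ml, washed, and cultured with peptide kept present throughout, with medium replaced at day 4. Infection was scored by syncytia formation and by supernatant p24 ELISA, with at least two runs in duplicate.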

HIV-1 NL 4-3 [1] = experiment: HIV-1 infection of C8166 cells (syncytia formation, p24 ELISA) with HIV-1 NL 4-3; design: key: ++, +, (+), (+)− and − represent decreasing numbers of syncitia formed; ++, +, (+), (+)− and − represent decreasing numbers of syncitia formed; ++, +, (+), (+)− and − represent decreasing numbers of syncitia formed; ++, +, (+), (+)− and − represent decreasing numbers of syncitia formed; ++, +, (+), (+)− and − represent decreasing numbers of syncitia formed
Summary of the method: as §1

HIV-1 NL 4-3 [2] = experiment: as above
Summary of the method: as §1

[3] = C8166 cells, HIV-1 subtype B NL 4-3, Table 9, two lines = tested twice, 8 days apart

## C[C@H](NC(=O)[C@H](CCCNC(=N)N)NC(=O)CNC(=O)[C@@H]1CCCN1C(=O)CN)C(=O)N[C@@H](Cc1ccccc1)C(=O)NCCCC[C@H](NC(=O)[C@H](Cc1ccccc1)NC(=O)[C@H](C)NC(=O)[C@H](CCCNC(=N)N)NC(=O)CNC(=O)[C@@H]1CCCN1C(=O)CN)C(=O)NCCCC[C@H](NC(=O)[C@H](CCCCNC(=O)[C@H](Cc1ccccc1)NC(=O)[C@H](C)NC(=O)[C@H](CCCNC(=N)N)NC(=O)CNC(=O)[C@@H]1CCCN1C(=O)CN)NC(=O)[C@H](Cc1ccccc1)NC(=O)[C@H](C)NC(=O)[C@H](CCCNC(=N)N)NC(=O)CNC(=O)[C@@H]1CCCN1C(=O)CN)C(=O)NCCCC[C@H](NC(=O)[C@H](CCCCNC(=O)[C@H](CCCCNC(=O)[C@H](Cc1ccccc1)NC(=O)[C@H](C)NC(=O)[C@H](CCCNC(=N)N)NC(=O)CNC(=O)[C@@H]1CCCN1C(=O)CN)NC(=O)[C@H](Cc1ccccc1)NC(=O)[C@H](C)NC(=O)[C@H](CCCNC(=N)N)NC(=O)CNC(=O)[C@@H]1CCCN1C(=O)CN)NC(=O)[C@H](CCCCNC(=O)[C@H](Cc1ccccc1)NC(=O)[C@H](C)NC(=O)[C@H](CCCNC(=N)N)NC(=O)CNC(=O)[C@@H]1CCCN1C(=O)CN)NC(=O)[C@H](Cc1ccccc1)NC(=O)[C@H](C)NC(=O)[C@H](CCCNC(=N)N)NC(=O)CNC(=O)[C@@H]1CCCN1C(=O)CN)C(=O)NCCC(=O)O [SPC3, (GPGRAF)8-K4-K2-K-βA-OH, reference compound]
HIV-1 NDK; 0.005 μM
  syncitia formed, Day 4: −
  syncitia formed, Day 5: +
  syncitia formed, Day 6: ++
  syncitia formed, Day 7: ++/T
  P 24: 23810 pg/mL
HIV-1 NDK; 0.01 μM
  syncitia formed, Day 4: −
  syncitia formed, Day 5: +
  syncitia formed, Day 6: ++
  syncitia formed, Day 7: ++/T
  P 24: 23810 pg/mL
HIV-1 NDK; 0.05 μM
  syncitia formed, Day 4: −
  syncitia formed, Day 5: +
  syncitia formed, Day 6: ++
  syncitia formed, Day 7: ++/T
  P 24: 23810 pg/mL
HIV-1 NDK; 0.1 μM
  syncitia formed, Day 4: −
  syncitia formed, Day 5: (+)
  syncitia formed, Day 6: + and ++
  syncitia formed, Day 7: ++
  P 24: 18810 pg/mL and 20850 pg/mL
HIV-1 NDK; 0.5 μM
  syncitia formed, Day 4: −
  syncitia formed, Day 5: −
  syncitia formed, Day 6: +
  syncitia formed, Day 7: ++
  P 24: 15173 pg/mL and 12840 pg/mL
HIV-1 NDK; 1 μM
  syncitia formed, Day 4: −
  syncitia formed, Day 5: −
  syncitia formed, Day 6: −
  syncitia formed, Day 7: (+)
HIV-1 NDK; 5 μM
  syncitia formed, Day 4: −
  syncitia formed, Day 5: −
  syncitia formed, Day 6: −
  syncitia formed, Day 7: −
HIV-1 NDK; HIV 1 NDK, Table 10
  IC50: 600 nM
  IC100: 5 µM
HIV-1 NL 4-3 [1]; 0.005 μM, Table 6
  Day 4 syncitia formed: −
  Day 5 syncitia formed: +
  Day 6 syncitia formed: ++
HIV-1 NL 4-3 [1]; 0.01 μM, Table 6
  Day 4 syncitia formed: −
  Day 5 syncitia formed: +
  Day 6 syncitia formed: ++
HIV-1 NL 4-3 [1]; 0.05 μM, Table 6
  Day 4 syncitia formed: −
  Day 5 syncitia formed: +
  Day 6 syncitia formed: ++
HIV-1 NL 4-3 [1]; 0.1 μM, Table 6
  Day 4 syncitia formed: −
  Day 5 syncitia formed: (+)
  Day 6 syncitia formed: + and ++
  Day 7 syncitia formed: ++
HIV-1 NL 4-3 [1]; 0.5 μM, Table 6
  Day 4 syncitia formed: −
  Day 5 syncitia formed: −
  Day 6 syncitia formed: (+)
  Day 7 syncitia formed: +
HIV-1 NL 4-3 [1]; 1 μM, Table 6
  Day 4 syncitia formed: −
  Day 5 syncitia formed: −
  Day 6 syncitia formed: −
  Day 7 syncitia formed: (+)
HIV-1 NL 4-3 [1]; 2 μM, Table 1
  Day 4 syncitia formed: −
  Day 5 syncitia formed: (+) and (+)−
  Day 6 syncitia formed: +
  Day 7 syncitia formed: ++
HIV-1 NL 4-3 [1]; 5 μM, Table 1
  Day 4 syncitia formed: −
  Day 5 syncitia formed: −
  Day 6 syncitia formed: −
  Day 7 syncitia formed: −
HIV-1 NL 4-3 [1]; 5 μM, Table 6
  Day 4 syncitia formed: −
  Day 5 syncitia formed: −
  Day 6 syncitia formed: −
  Day 7 syncitia formed: −
HIV-1 NL 4-3 [2]; 0.005 μM, Table 6
  Day 7 syncitia formed: ++/T
HIV-1 NL 4-3 [2]; 0.01 μM, Table 6
  Day 7 syncitia formed: ++/T
HIV-1 NL 4-3 [2]; 0.05 μM, Table 6
  Day 7 syncitia formed: ++/T
HIV-1 NL 4-3 [2]; C8166 cells, HIV-1 subtype B NL 4-3, Table 3
  IC50: 500 nM
HIV-1 NL 4-3 [2]; [3]
  IC50: 500 nM
  IC100: 5 µM
HIV-1 NL 4-3 [2]; Day 4, 5 μM, Table 1
  P 24: NEG
HIV-1 NL 4-3 [2]; Day 4, 5 μM, Table 2
  P 24: NEG
HIV-1 NL 4-3 [2]; Day 7, 0.005 μM, Table 6
  P 24: 23810 pg/mL
HIV-1 NL 4-3 [2]; Day 7, 0.01 μM, Table 6
  P 24: 23810 pg/mL
HIV-1 NL 4-3 [2]; Day 7, 0.05 μM, Table 6
  P 24: 23810 pg/mL
HIV-1 NL 4-3 [2]; Day 7, 0.1 μM, Table 6
  P 24: 17810 pg/mL and 19850 pg/mL
HIV-1 NL 4-3 [2]; Day 7, 0.5 μM, Table 6
  P 24: 5173 pg/mL and 4840 pg/mL
HIV-1 NL 4-3 [2]; Day 7, 2 μM, Table 1
  P 24: 7589 pg/mL and 14787 pg/mL
HIV-1 NL 4-3 [2]; Day 7, 5 μM, Table 1
  P 24: NEG
HIV-1 NL 4-3 [2]; Day 7, 5 μM, Table 2
  P 24: 288 pg/mL and 342 pg/mL
HIV-1 NL 4-3 [2]; Day 7, 5 μM, Table 6
  P 24: 3 pg/mL

— patent US20060229433A1, “Modified antiviral peptides with increased activity and cell membrane affinity” (priority 2003, published 2006)
